Species: Rattus norvegicus
Experiment: DrugMatrix - Regimen: Daily Repeat
Type: toxicity, organism-based, Sprague-Dawley
Parameters: regimen Daily Repeat, gender Male, age 6-8 weeks
Conditions: in vivo, iv, vehicle 100 % SALINE; for ABSOLUTE BASOPHIL / ABSOLUTE EOSINOPHIL / ABSOLUTE LYMPHOCYTE / ABSOLUTE MONOCYTE / ABSOLUTE SEGMENTED NEUTROPHIL / BASOPHIL / EOSINOPHIL / ERYTHROCYTE COUNT / HEMATOCRIT / HEMOGLOBIN / LEUKOCYTE COUNT / LYMPHOCYTE / MEAN CORPUSCULAR HEMOGLOBIN / MEAN CORPUSCULAR HEMOGLOBIN CONCENTRATION / MEAN CORPUSCULAR VOLUME / MONOCYTE / NEUTROPHIL / NUCLEATED RED BLOOD CELLS / PLATELET COUNT: tissue Blood; for ALANINE AMINOTRANSFERASE / ALBUMIN / ALKALINE PHOSPHATASE / ASPARTATE AMINOTRANSFERASE / BLOOD UREA NITROGEN / CARBON DIOXIDE / CHLORIDE / CHOLESTEROL / CREATINE PHOSPHOKINASE / CREATININE / GLUCOSE / LACTATE DEHYDROGENASE / LIPASE / PHOSPHORUS / POTASSIUM / SODIUM / TOTAL BILIRUBIN / TOTAL PROTEIN / URIC ACID: tissue Plasma
[1] = 0.01 mg/kg, 72 h, dose level Low, time 3 day
[2] = 0.01 mg/kg, 120 h, dose level Low, time 5 day
[3] = 15 mg/kg, 72 h, dose level High, time 3 day

CC(C)NCC(O)c1ccc(O)c(O)c1 (centres undefined) [ISOPROTERENOL]
ABSOLUTE BASOPHIL [1]: 0 CELLS/uL | ABSOLUTE EOSINOPHIL [1]: 134.67 CELLS/uL | ABSOLUTE LYMPHOCYTE [1]: 13411.33 CELLS/uL | ABSOLUTE MONOCYTE [1]: 299.67 CELLS/uL | ABSOLUTE SEGMENTED NEUTROPHIL [1]: 1854.33 CELLS/uL | BASOPHIL [1]: 0% | EOSINOPHIL [1]: 0.67% | ERYTHROCYTE COUNT [1]: 5.6 x10E6/uL | HEMATOCRIT [1]: 34.43% | HEMOGLOBIN [1]: 12.9 G/DL | LEUKOCYTE COUNT [1]: 15.7 x10E3/uL | LYMPHOCYTE [1]: 85.33% | MEAN CORPUSCULAR HEMOGLOBIN [1]: 23.03 pg | MEAN CORPUSCULAR HEMOGLOBIN CONCENTRATION [1]: 37.47 G/DL | MEAN CORPUSCULAR VOLUME [1]: 61.43 fL | MONOCYTE [1]: 2% | NEUTROPHIL [1]: 12% | NUCLEATED RED BLOOD CELLS [1]: 0 /100WBC | PLATELET COUNT [1]: 1265.33 x10E3/uL | ALANINE AMINOTRANSFERASE [1]: 39.67 u/L | ALBUMIN [1]: 4.4 G/DL | ALKALINE PHOSPHATASE [1]: 368 u/L | ASPARTATE AMINOTRANSFERASE [1]: 75 u/L | BLOOD UREA NITROGEN [1]: 14.33 mg/dL | CARBON DIOXIDE [1]: 25 mmol/L | CHLORIDE [1]: 104 MEQ/L | CHOLESTEROL [1]: 69.67 mg/dL | CREATINE PHOSPHOKINASE [1]: 196.33 u/L | CREATININE [1]: 0.24 mg/dL | GLUCOSE [1]: 149.67 mg/dL | LACTATE DEHYDROGENASE [1]: 289 u/L | LIPASE [1]: 9.67 u/L | PHOSPHORUS [1]: 13.47 mg/dL | POTASSIUM [1]: 6.71 MEQ/L | SODIUM [1]: 146.07 MEQ/L | TOTAL BILIRUBIN [1]: 0.2 mg/dL | TOTAL PROTEIN [1]: 5.97 G/DL | URIC ACID [1]: 2.17 mg/dL | ABSOLUTE BASOPHIL [2]: 0 CELLS/uL | ABSOLUTE EOSINOPHIL [2]: 0 CELLS/uL | ABSOLUTE LYMPHOCYTE [2]: 15742 CELLS/uL | ABSOLUTE MONOCYTE [2]: 224 CELLS/uL | ABSOLUTE SEGMENTED NEUTROPHIL [2]: 800.67 CELLS/uL | BASOPHIL [2]: 0% | EOSINOPHIL [2]: 0% | ERYTHROCYTE COUNT [2]: 5.33 x10E6/uL | HEMATOCRIT [2]: 32.33% | HEMOGLOBIN [2]: 12.57 G/DL | LEUKOCYTE COUNT [2]: 16.77 x10E3/uL | LYMPHOCYTE [2]: 94% | MEAN CORPUSCULAR HEMOGLOBIN [2]: 23.6 pg | MEAN CORPUSCULAR HEMOGLOBIN CONCENTRATION [2]: 38.9 G/DL | MEAN CORPUSCULAR VOLUME [2]: 60.67 fL | MONOCYTE [2]: 1.33% | NEUTROPHIL [2]: 4.67% | NUCLEATED RED BLOOD CELLS [2]: 0 /100WBC | PLATELET COUNT [2]: 1122.67 x10E3/uL | ALANINE AMINOTRANSFERASE [2]: 81 u/L | ALBUMIN [2]: 3.6 G/DL | ALKALINE PHOSPHATASE [2]: 310 u/L | ASPARTATE AMINOTRANSFERASE [2]: 65 u/L | BLOOD UREA NITROGEN [2]: 16.67 mg/dL | CARBON DIOXIDE [2]: 24 mmol/L | CHLORIDE [2]: 107.5 MEQ/L | CHOLESTEROL [2]: 61.33 mg/dL | CREATINE PHOSPHOKINASE [2]: 282.67 u/L | CREATININE [2]: 0.3 mg/dL | GLUCOSE [2]: 161.67 mg/dL | LACTATE DEHYDROGENASE [2]: 140 u/L | LIPASE [2]: 11 u/L | PHOSPHORUS [2]: 11.23 mg/dL | POTASSIUM [2]: 6.08 MEQ/L | SODIUM [2]: 146.4 MEQ/L | TOTAL BILIRUBIN [2]: 0.13 mg/dL | TOTAL PROTEIN [2]: 5.73 G/DL | URIC ACID [2]: 1.3 mg/dL | ABSOLUTE BASOPHIL [3]: 0 CELLS/uL | ABSOLUTE EOSINOPHIL [3]: 47.67 CELLS/uL | ABSOLUTE LYMPHOCYTE [3]: 15188.67 CELLS/uL | ABSOLUTE MONOCYTE [3]: 404 CELLS/uL | ABSOLUTE SEGMENTED NEUTROPHIL [3]: 1159.67 CELLS/uL | BASOPHIL [3]: 0% | EOSINOPHIL [3]: 0.33% | ERYTHROCYTE COUNT [3]: 5.66 x10E6/uL | HEMATOCRIT [3]: 36.93% | HEMOGLOBIN [3]: 13.6 G/DL | LEUKOCYTE COUNT [3]: 16.8 x10E3/uL | LYMPHOCYTE [3]: 90.67% | MEAN CORPUSCULAR HEMOGLOBIN [3]: 24 pg | MEAN CORPUSCULAR HEMOGLOBIN CONCENTRATION [3]: 36.83 G/DL | MEAN CORPUSCULAR VOLUME [3]: 65.2 fL | MONOCYTE [3]: 2.33% | NEUTROPHIL [3]: 6.67% | NUCLEATED RED BLOOD CELLS [3]: 0 /100WBC | PLATELET COUNT [3]: 1372 x10E3/uL | ALANINE AMINOTRANSFERASE [3]: 39 u/L | ALBUMIN [3]: 4.1 G/DL | ALKALINE PHOSPHATASE [3]: 370.67 u/L | ASPARTATE AMINOTRANSFERASE [3]: 73.67 u/L | BLOOD UREA NITROGEN [3]: 19.33 mg/dL | CARBON DIOXIDE [3]: 24.67 mmol/L | CHLORIDE [3]: 106 MEQ/L | CHOLESTEROL [3]: 80.33 mg/dL | CREATINE PHOSPHOKINASE [3]: 282.67 u/L | CREATININE [3]: 0.17 mg/dL | GLUCOSE [3]: 151.33 mg/dL | LACTATE DEHYDROGENASE [3]: 128.33 u/L | LIPASE [3]: 9 u/L | PHOSPHORUS [3]: 10.87 mg/dL
